Measured values taken from US8703811B2, “Small molecule inhibitors of Plasmodium falciparum dihydroorotate dehydrogenase” (Genzyme Corporation, priority 2008, dated 2014).

Columns and labels:
[1] = test system: Renal Proximal Tubule Epithelial Cells; assay: Renal Proximal Tubule Epithelial Cell Toxicity Screen; format: cell-based
Method in brief: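 Normal renal epithelial cells seeded at 1.5×10^4 cells/mL, grown 24 h at 37 °C/5% CO2, then exposed to compounds for 96 h; a T=0 plate was read at dosing. Viability by Alamar Blue fluorescence after 4 h, with Tween 20 and DMSO wells as positive and negative controls.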

pbDHODH = pbDHODH (Plasmodium berghei, UniProt A0A509AEH5); assay: DCIP assay, pbDHODH; format: biochemical, P. berghei; settings: 200 μM L-DHO, 18 μM CoQD, 100 μM DCIP, 20 nM enzyme
pbDHODH, sequence (A0A509AEH5 1-517): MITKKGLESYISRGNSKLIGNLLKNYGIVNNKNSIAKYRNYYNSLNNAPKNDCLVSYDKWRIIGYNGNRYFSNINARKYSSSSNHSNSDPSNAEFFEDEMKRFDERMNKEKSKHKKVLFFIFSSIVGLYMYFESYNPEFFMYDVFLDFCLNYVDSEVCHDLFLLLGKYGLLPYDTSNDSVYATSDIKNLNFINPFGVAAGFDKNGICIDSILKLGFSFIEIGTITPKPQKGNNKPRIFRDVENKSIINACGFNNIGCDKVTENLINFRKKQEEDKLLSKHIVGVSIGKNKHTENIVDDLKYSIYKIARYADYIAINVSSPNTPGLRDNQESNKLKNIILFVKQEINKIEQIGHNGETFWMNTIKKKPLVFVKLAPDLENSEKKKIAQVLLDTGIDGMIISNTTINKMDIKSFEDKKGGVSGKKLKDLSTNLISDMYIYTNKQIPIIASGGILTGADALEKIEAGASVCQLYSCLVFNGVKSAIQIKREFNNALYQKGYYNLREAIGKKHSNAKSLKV
Description: (§1) Type 2 DHODH activity was monitored with either the direct assay measuring the formation of orotate or via a chromogen reduction assay using DCIP. Although the extinction coefficient and absorption wavelength are preferable for the chromogen reduction assay, the inorganic electron acceptor DCIP can be utilized by DHODH as the final electron acceptor in lieu of CoQn when the endogenous substrate is at a low concentration. As such, the direct assay was used to measure the binding affinity of pfDHODH to CoQD and L-DHO. The enzymatic reaction was performed by varying the L-DHO concentration (1-400 μM) or CoQD concentration (1-200 μM) while keeping the other substrate constant and in excess. The formation of orotate was measured continuously at 296 nm (ε296=4.3 mM^−1 cm^−1). Inhibition of DHODH by small molecules was evaluated using the chromogen based assay with a final substrate concentration of 200 μM L-DHO, 18 μM CoQD, and 100 μM DCIP, unless otherwise noted. The reduction of DCIP was monitored at 600 nm (ε600=18.8 mM^−1 cm^−1).
(§2) Substrate specificity and enzyme inhibition data was analyzed with GraphPad Prism Version 4 for Windows (GraphPad Software). Kinetic constants were calculated by non-linear regression fitting of the data to the Michaelis-Menten equation [36]. IC50 values were determined by non-linear regression fitting of the data to Equation 1: […]

pvDHODH = pvDHODH (Plasmodium vivax, UniProt A5K1N1); assay: DCIP assay, pvDHODH; format: biochemical, P. vivax; settings: 200 μM L-DHO, 18 μM CoQD, 100 μM DCIP, 20 nM enzyme
pvDHODH, sequence (A5K1N1 1-572): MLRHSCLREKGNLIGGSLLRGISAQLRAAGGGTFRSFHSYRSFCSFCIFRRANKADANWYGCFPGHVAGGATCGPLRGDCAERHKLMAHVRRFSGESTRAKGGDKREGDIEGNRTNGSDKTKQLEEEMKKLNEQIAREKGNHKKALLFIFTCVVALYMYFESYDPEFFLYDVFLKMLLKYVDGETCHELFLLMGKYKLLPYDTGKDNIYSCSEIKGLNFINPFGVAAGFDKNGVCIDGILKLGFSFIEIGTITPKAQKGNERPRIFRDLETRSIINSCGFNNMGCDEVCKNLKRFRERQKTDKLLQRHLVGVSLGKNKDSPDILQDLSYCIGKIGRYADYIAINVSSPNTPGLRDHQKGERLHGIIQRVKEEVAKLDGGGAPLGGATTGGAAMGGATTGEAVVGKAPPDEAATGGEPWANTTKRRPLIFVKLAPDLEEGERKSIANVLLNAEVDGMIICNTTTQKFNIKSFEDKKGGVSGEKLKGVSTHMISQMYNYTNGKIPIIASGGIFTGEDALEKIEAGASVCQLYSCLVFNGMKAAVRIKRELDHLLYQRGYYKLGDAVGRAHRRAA
Description: as §1, §2

scDHODH = scDHODH (Saccharomyces cerevisiae (strain ATCC 204508 / S288c) (Baker's yeast), UniProt P28272); assay: DCIP assay with fumarate, scDHODH; format: biochemical; settings: 115 μM fumarate in lieu of CoQD
scDHODH, sequence (P28272 whole entry): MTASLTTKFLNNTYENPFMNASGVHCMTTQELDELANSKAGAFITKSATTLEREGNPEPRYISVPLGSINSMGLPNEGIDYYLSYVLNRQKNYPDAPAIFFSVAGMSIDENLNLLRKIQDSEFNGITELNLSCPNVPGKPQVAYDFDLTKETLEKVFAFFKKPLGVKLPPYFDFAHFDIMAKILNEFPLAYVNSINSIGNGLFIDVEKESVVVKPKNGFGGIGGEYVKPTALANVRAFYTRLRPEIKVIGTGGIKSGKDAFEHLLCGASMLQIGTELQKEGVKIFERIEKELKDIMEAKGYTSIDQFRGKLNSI

P. falciparum HB3 = assay: Inhibition of in vitro P. falciparum culture, [3H]-hypoxanthine uptake, HB3; format: cell-based; settings: Plasmodium falciparum, HB3, Erythrocyte; [3H]-hypoxanthine uptake by parasite infected erythrocytes; read-out: HB3 IC50
Method in brief: (§3)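 Parasite growth inhibition measured as relative reduction of [3H]-hypoxanthine uptake in in vitro cultures. Values from non-linear regression fit, using relative growth velocity in place of product-formation rate.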

P. falciparum D10 = assay: Inhibition of in vitro P. falciparum culture, [3H]-hypoxanthine uptake, D10; format: cell-based; settings: Plasmodium falciparum, D10, Erythrocyte; [3H]-hypoxanthine uptake by parasite infected erythrocytes; read-out: D10 IC50
Method in brief: as §3

[2] = test system: P. falciparum D10-scDHODH; assay: Inhibition of transgenic D10-scDHODH parasites, [3H]-hypoxanthine uptake; format: cell-based
Method in brief: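 P. falciparum D10 transfected with full-length scDHODH (no GFP tag) and kept under WR99210 selection. Growth inhibition measured as relative reduction of [3H]-hypoxanthine uptake, and data fitted by non-linear regression to relative growth velocity.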

pfDHODH = pfDHODH (Plasmodium falciparum (isolate 3D7), UniProt Q08210); assay: pfDHODH activity with FeCy as electron acceptor; settings: read-out: % Inhibition of Product Formation Rate with 50 μM Inhibitor, FeCy
pfDHODH, sequence (Q08210 159-565 limits assumed): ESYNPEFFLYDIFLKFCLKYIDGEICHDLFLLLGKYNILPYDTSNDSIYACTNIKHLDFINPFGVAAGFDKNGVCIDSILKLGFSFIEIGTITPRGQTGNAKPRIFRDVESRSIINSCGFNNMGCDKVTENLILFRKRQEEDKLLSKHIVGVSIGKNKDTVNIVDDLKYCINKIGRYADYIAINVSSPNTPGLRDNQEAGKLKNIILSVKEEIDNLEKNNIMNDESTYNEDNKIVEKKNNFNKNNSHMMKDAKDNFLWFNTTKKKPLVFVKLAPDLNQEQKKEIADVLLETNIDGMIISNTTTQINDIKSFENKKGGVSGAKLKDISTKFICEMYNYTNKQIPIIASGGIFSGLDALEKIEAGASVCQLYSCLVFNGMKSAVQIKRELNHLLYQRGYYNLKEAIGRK
Description: Inhibitors of DHODH, as classified by the chromogen reduction assay, were also evaluated for activity using FeCy as an electron acceptor. A final concentration of 5-50 nM DHODH, 200 μM L-DHO and 100 μM FeCy in Buffer C was used in this assay. Both the reduction of FeCy and the formation of orotate was monitored at 420 nm (ε420=1 mM^−1 cm^−1) and 290 nm (ε280=2 mM^−1 cm^−1), respectively, noting that two molecules of FeCy are reduced for one molecule of L-DHO. As with the previous assays, the reaction was performed at 25° C. and initiated with the addition of enzyme.

Hepatic clearance, human = format: in vitro ADME
Description: (§4) Clearance of drug by the liver will depend on the rate of delivery of drug to the liver (the hepatic blood flow) and on the efficiency of removal of drug which is presented to it (the extraction ratio). The hepatic clearance of compounds can be determined by standard methods known in the art. Such methods are described in, for example, Naritomi, Y; Terashita, S; Kagayama, A; Sugiyama, Y. “Utility of Hepatocytes in Predicting Drug Metabolism: Comparison of Hepatic Intrinsic Clearance in Rats and Humans in Vivo and in Vitro.” 2003, 31 (5): pages 580-588.

Hepatic clearance, rat = format: in vitro ADME
Description: as §4

Q: For “5-(1H-indol-1-yl)-N-propylthiophene-2-carboxamide [Compound 7]”, which CC50 ([1]; 4 days exposure, Alamar Blue, read-out: Kidney Epithelial LC50) is on record?
A: 50 µM

Q: For `CCCNC(=O)c1ccc(-n2c(C)cc3ccccc32)s1` [Compound 1, 5-(2-methyl-1H-indol-1-yl)-N-propylthiophene-2-carboxamide], which IC50 (pbDHODH) is on record?
A: 0.06 ± 0.007 µM

Q: And the IC50 (pvDHODH)?
A: 0.42 ± 0.02 µM

Q: What about the IC50 (scDHODH) of the same molecule?
A: > 10 µM

Q: And the IC50 (P. falciparum HB3)?
A: 0.47 µM

Q: And the IC50 (P. falciparum D10)?
A: 0.61 µM

Q: And the IC50 ([2]; Plasmodium falciparum, D10, read-out: D10-scDHODH IC50)?
A: > 10 µM

Q: And the “efficacy against D10-scDHODH strain compared to D10 parent strain” value ([2]; dose-effect curves, FIG. 5)?
A: significantly reduced

Q: What about the inhibition at 50 µM (pfDHODH) of the same molecule?
A: 31%

Q: For `CCCNC(=O)c1ccc(-n2cnc3ccccc32)s1` [Compound 11, 5-(1H-benzo[d]imidazol-1-yl)-N-propylthiophene-2-carboxamide], which microsomal CLint (Hepatic clearance, human) is on record?
A: 49 µL/min/mg

Q: And the microsomal CLint (Hepatic clearance, rat)?
A: > 119 µL/min/mg

Q: Which “cytotoxicity in kidney epithelial cells” value [1] does the source give for `CCCNC(=O)c1ccc(-n2c(C)nc3ccccc32)s1` [Compound 12, 5-(2-methyl-1H-benzo[d]imidazol-1-yl)-N-propylthiophene-2-carboxamide] here?
A: No adverse cytotoxicity

Q: What about the microsomal CLint (Hepatic clearance, human) of the same molecule?
A: 33 µL/min/mg

Q: And the microsomal CLint (Hepatic clearance, rat)?
A: 102 µL/min/mg
